# Measurements taken from patent US10508077B2 (FORMA Therapeutics, Inc., priority 2015, dated 2019).
# Target: T1, Full length human recombinant HDAC8 protein (Homo sapiens, UniProt Q9BY41)
# T1 construct: Full length human recombinant HDAC8 protein was expressed in baculoviral system; made in house
# T1 sequence (Q9BY41 1-377): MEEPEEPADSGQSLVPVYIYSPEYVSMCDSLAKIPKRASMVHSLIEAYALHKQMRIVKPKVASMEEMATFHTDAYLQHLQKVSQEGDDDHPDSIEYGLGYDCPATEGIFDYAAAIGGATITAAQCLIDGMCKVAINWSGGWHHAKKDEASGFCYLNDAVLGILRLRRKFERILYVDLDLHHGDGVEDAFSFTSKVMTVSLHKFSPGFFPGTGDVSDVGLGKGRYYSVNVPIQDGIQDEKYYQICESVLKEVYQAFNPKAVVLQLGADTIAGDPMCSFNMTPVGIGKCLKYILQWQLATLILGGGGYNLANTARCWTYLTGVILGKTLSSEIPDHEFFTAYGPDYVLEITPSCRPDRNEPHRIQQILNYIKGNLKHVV
# Experiment: In vitro histone deacetylase assay: enzymatic HDAC8 assay, electrophoretic mobility shift
# Assay type: biochemical
# Settings: substrate RHKK(Ac)-NH2, 1 nM enzyme, compounds listed under IC50 range headings
# Method in brief: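 Readout was microfluidic mobility-shift separation of deacetylated product from fluorescent RHKK(Ac)-NH2 substrate (2 µM), after reaction with 1 nM recombinant full-length human HDAC8 at 25 °C, pH 7.5, stopped with SDS. Twelve 3-fold-spaced concentrations tested; product/sum ratios normalized to controls and fitted with a 4-parameter model for IC50.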
row,IC50 [nM],SMILES
1,< 1000,"CC(C)(C)OC(=O)N1CC(=O)N(c2ccccc2/C=C/C(=O)NO)C1 [Example I-261, tert-butyl (E)-3-(2-(3-(hydroxyamino)-3-oxoprop-1-en-1-yl)phenyl)-4-oxoimidazolidine-1-carboxylate]"
2,< 1000,"O=C(/C=C/c1ccccc1NC(=O)c1ccccc1CCc1ccccc1)NO [Example I-267, (E)-N-(2-(3-(hydroxyamino)-3-oxoprop-1-en-1-yl)phenyl)-2-phenethylbenzamide]"
3,< 1000,"O=C(/C=C/c1ccccc1NC(=O)c1sc2ccccc2c1Cl)NO [Example I-269, (E)-3-chloro-N-(2-(3-(hydroxyamino)-3-oxoprop-1-en-1-yl)phenyl)benzo[b]thiophene-2-carboxamide]"
4,< 1000,"Cc1oc(-c2ccccc2)cc1C(=O)Nc1ccccc1/C=C/C(=O)NO [Example I-271, (E)-N-(2-(3-(hydroxyamino)-3-oxoprop-1-en-1-yl)phenyl)-2-methyl-5-phenylfuran-3-carboxamide]"
5,< 1000,"Cc1oc(-c2ccc(Cl)cc2)cc1C(=O)Nc1ccccc1/C=C/C(=O)NO [Example I-272, (E)-5-(4-chlorophenyl)-N-(2-(3-(hydroxyamino)-3-oxoprop-1-en-1-yl)phenyl)-2-methylfuran-3-carboxamide]"
6,< 1000,"O=C(/C=C/c1ccccc1NC(=O)c1ccc(-n2cccc2)nc1)NO [Example I-273, (E)-N-(2-(3-(hydroxyamino)-3-oxoprop-1-en-1-yl)phenyl)-6-(1H-pyrrol-1-yl)nicotinamide]"
7,< 1000,"CCCc1nc(-c2ccccc2)sc1C(=O)Nc1ccccc1/C=C/C(=O)NO [Example I-276, (E)-N-(2-(3-(hydroxyamino)-3-oxoprop-1-en-1-yl)phenyl)-2-phenyl-4-propylthiazole-5-carboxamide]"
8,< 1000,"Cc1nc(-c2ccccc2)sc1C(=O)Nc1ccccc1/C=C/C(=O)NO [Example I-277, (E)-N-(2-(3-(hydroxyamino)-3-oxoprop-1-en-1-yl)phenyl)-4-methyl-2-phenylthiazole-5-carboxamide]"
9,< 1000,"Cc1ccccc1C(C(=O)Nc1ccccc1/C=C/C(=O)NO)C(C)C (stereo not shown) [Example I-278, (E)-N-(2-(3-(hydroxyamino)-3-oxoprop-1-en-1-yl)phenyl)-3-methyl-2-(o-tolyl)butanamide]"
10,< 1000,"O=C(/C=C/c1ccccc1NC(=O)C(c1ccccc1)C1CCCC1)NO (stereo not shown) [Example I-279, (E)-3-(2-(2-cyclopentyl-2-phenylacetamido)phenyl)-N-hydroxyacrylamide]"
11,< 1000,"Cc1ccc(Sc2ncccc2C(=O)Nc2ccccc2/C=C/C(=O)NO)cc1 [Example I-280, (E)-N-(2-(3-(hydroxyamino)-3-oxoprop-1-en-1-yl)phenyl)-2-(p-tolylthio)nicotinamide]"
12,< 1000,"Cc1nc(C(C)(C)C)sc1C(=O)Nc1ccccc1/C=C/C(=O)NO [Example I-283, (E)-2-(tert-butyl)-N-(2-(3-(hydroxyamino)-3-oxoprop-1-en-1-yl)phenyl)-4-methylthiazole-5-carboxamide]"
13,< 1000,"COc1cc(-c2ccccc2)sc1C(=O)Nc1ccccc1/C=C/C(=O)NO [Example I-284, (E)-N-(2-(3-(hydroxyamino)-3-oxoprop-1-en-1-yl)phenyl)-3-methoxy-5-phenylthiophene-2-carboxamide]"
14,< 1000,"Cn1cc(-c2ncc(C(=O)Nc3ccccc3/C=C/C(=O)NO)s2)cn1 [Example I-285, (E)-N-(2-(3-(hydroxyamino)-3-oxoprop-1-en-1-yl)phenyl)-2-(1-methyl-1H-pyrazol-4-yl)thiazole-5-carboxamide]"
15,< 1000,"Cc1cc(C(=O)Nc2ccccc2/C=C/C(=O)NO)ccc1-n1cnnn1 [Example I-286, (E)-N-(2-(3-(hydroxyamino)-3-oxoprop-1-en-1-yl)phenyl)-3-methyl-4-(1H-tetrazol-1-yl)benzamide]"
16,< 1000,"O=C(/C=C/c1ccccc1NC(=O)c1ccc(Cn2nnc3ccccc32)cc1)NO [Example I-287, (E)-4-((1H-benzo[d][1,2,3]triazol-1-yl)methyl)-N-(2-(3-(hydroxyamino)-3-oxoprop-1-en-1-yl)phenyl)benzamide]"
17,< 1000,"Cc1nc(C(C)C(=O)N2CCN(c3ccccc3/C=C/C(=O)NO)CC2)cs1 (stereo not shown) [Example I-289, (E)-N-hydroxy-3-(2-(4-(2-(2-methylthiazol-4-yl)propanoyl)piperazin-1-yl)phenyl)acrylamide]"
18,< 1000,"O=C(/C=C/c1ccccc1N1Cc2cc(Cl)c(Cl)cc2C1)NO [Example I-290, (E)-3-(2-(5,6-dichloroisoindolin-2-yl)phenyl)-N-hydroxyacrylamide]"
19,< 1000,"CC(C(=O)N1CCN(c2ccccc2/C=C/C(=O)NO)CC1)c1ccc(Cl)cc1 (stereo not shown) [Example I-291, (E)-3-(2-(4-(2-(4-chlorophenyl)propanoyl)piperazin-1-yl)phenyl)-N-hydroxyacrylamide]"

row,IC50 [nM],SMILES
1,< 1000,"O=C(/C=C/c1ccccc1N1CCN(C(=O)C2(c3ccc(Cl)cc3)CC2)CC1)NO [Example I-294, (E)-3-(2-(4-(1-(4-chlorophenyl)cyclopropane-1-carbonyl)piperazin-1-yl)phenyl)-N-hydroxyacrylamide]"
2,< 1000,"O=C(/C=C/c1ccccc1N1CCN(C(=O)Cc2cccnc2)CC1)NO [Example I-295, (E)-N-hydroxy-3-(2-(4-(2-(pyridin-3-yl)acetyl)piperazin-1-yl)phenyl)acrylamide]"
3,< 1000,"O=C(/C=C/c1ccccc1N1CCN(C(=O)Cc2ccccn2)CC1)NO [Example I-296, (E)-N-hydroxy-3-(2-(4-(2-(pyridin-2-yl)acetyl)piperazin-1-yl)phenyl)acrylamide]"
4,< 1000,"CC(Cc1ccccc1)C(=O)N1CCN(c2ccccc2/C=C/C(=O)NO)CC1 (stereo not shown) [Example I-297, (E)-N-hydroxy-3-(2-(4-(2-methyl-3-phenylpropanoyl)piperazin-1-yl)phenyl)acrylamide]"
5,< 1000,"O=C(/C=C/c1ccccc1N1CCN(CCc2ccc(Cl)cc2)CC1)NO [Example I-299, (E)-3-(2-(4-(4-chlorophenethyl)pipera-zin-1-yl)phenyl)-N-hydroxyacrylamide]"
6,< 1000,"CC(CN1CCN(c2ccccc2/C=C/C(=O)NO)CC1)c1ccccc1 (stereo not shown) [Example I-300, (E)-N-hydroxy-3-(2-(4-(2-phenylpropyl)piperazin-1-yl)phenyl)acrylamide]"
7,< 1000,"CC(C)(C)OC(=O)NC1CCN(c2ccccc2/C=C/C(=O)NO)C1 (stereo not shown) [Example I-301, tert-butyl (E)-(1-(2-(3-(hydroxyamino)-3-oxoprop-1-en-1-yl)phenyl)pyrrolidin-3-yl)carbamate]"
8,< 1000,"O=C(/C=C/c1ccccc1N1CCN(c2ccccc2)C1=O)NO [Example I-302, (E)-N-hydroxy-3-(2-(2-oxo-3-phenylimidazolidin-1-yl)phenyl)acrylamide]"
9,< 1000,"O=C(/C=C/c1ccccc1NC(=O)c1ccnc(N2CCOCC2)c1)NO [Example I-305, (E)-N-(2-(3-(hydroxyamino)-3-oxoprop-1-en-1-yl)phenyl)-2-morpholinoisonicotinamide]"
10,< 1000,"O=C(/C=C/c1ccccc1N1Cc2ccccc2C1=O)NO [Example I-308, (E)-N-hydroxy-3-(2-(1-oxoisoindolin-2-yl)phenyl)acrylamide]"
11,< 1000,"O=C(/C=C/c1ccccc1N1CC2CC1CN2C(=O)Cc1ccc(Cl)cc1)NO [Example I-316, (E)-3-(2-((1S,4S)-5-(2-(4-chlorophenyl)acetyl)-2,5-diazabicyclo[2.2.1]heptan-2-yl)pheynyl)-N-hydroxyacrylamide]"
12,< 1000,"O=C(/C=C/c1ccccc1N1CCC(NC(=O)c2ccccc2)C1)NO (stereo not shown) [Example I-318, (E)-N-(1-(2-(3-(hydroxyamino)-3-oxoprop-1-en-1-yl)phenyl)pyrrolidin-3-yl)benzamide]"
13,< 1000,"O=C(/C=C/c1ccccc1N1CCN(C(=O)C2(C(F)(F)F)CC2)CC1)NO [Example I-322, (E)-N-hydroxy-3-(2-(4-(1-(trifluoromethyl)cyclopro-pane-1-carbonyl)piperazin-1-yl)phenyl)acrylamide]"
14,< 1000,"O=C(/C=C/c1ccccc1N1C[C@@H]2C[C@H]1CN2C(=O)C1(c2ccc(Cl)cc2)CC1)NO [Example I-329, (E)-3-(2-((1S,4S)-5-(1-(4-chlorophenyl)cyclopropane-1-carbonyl)-2,5-diazabicyclo[2.2.1]heptan-2-yl)phenyl)-N-hydroxyacrylamide]"
15,< 1000,"O=C(/C=C/c1ccccc1NC1CCN(Cc2ccc(F)cc2)C1)NO (stereo not shown) [Example I-330, (E)-3-(2-((1-(4-fluorobenzyl)pyrrolidin-3-yl)amino)phenyl)-N-hydroxyacrylamide]"
16,< 1000,"O=C(/C=C/c1ccccc1N1CCC(NC(=O)Cc2ccc(F)cc2)CC1)NO [Example I-331, (E)-3-(2-(4-(2-(4-fluorophenyl)acetamido)piperidin-1-yl)phenyl)-N-hydroxyacrylamide]"
17,< 1000,"O=C(/C=C/c1ccccc1NC(=O)c1ccccc1)NO [Example I-506, (E)-N-(2-(3-(hydroxyamino)-3-oxoprop-1-enyl)phenyl)benzamide 2,2,2-trifluoroacetate]"
18,< 1000,"O=C(/C=C/c1ccccc1N1CCN(C(=O)Nc2ccc(OC(F)(F)F)cc2)CC1=O)NO [Example I-528, (E)-4-(2-(3-(hydroxyamino)-3-oxoprop-1-en-1-yl)phenyl)-3-oxo-N-(4-(trifluoromethoxy)phenyl)piperazine-1-carboxamide]"
